Test results reported in patent publication US8192962B2, “Processes for detecting toxic substances” (Daikin Industries, Ltd., priority 2001, dated 2012).

Tested on: Unknown protein yeast genes
Assay: DNA chip mRNA expression in yeast, unknown protein yeast genes (Table 1)
Assay type: cell-based, Saccharomyces cerevisiae S288C
Procedure, shortened: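 Ratios compare mRNA levels in stressed and control S. cerevisiae. Each toxicant was applied for two hours to log-phase cultures at 25° C. at a sub-lethal, growth-inhibiting level; fluorescent cDNA (Cy3- or Cy5-dUTP) was hybridized to a genome-wide yeast chip for over 12 h at 65° C.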

## CN(C)C(=S)SSC(=S)N(C)C [(10), Tetramethylthiuram disulfide]
Yeast gene YAL053W, incubated two hours with chemical substance
  The level of expressed mRNA in the presence of chemical substance/The level of expressed mRNA in the absence of chemical substance: 0.9
Yeast gene YBL048W
  The level of expressed mRNA in the presence of chemical substance/The level of expressed mRNA in the absence of chemical substance: 4.4
Yeast gene YBL107C
  The level of expressed mRNA in the presence of chemical substance/The level of expressed mRNA in the absence of chemical substance: 3.1
Yeast gene YBR100W
  The level of expressed mRNA in the presence of chemical substance/The level of expressed mRNA in the absence of chemical substance: 3.0
Yeast gene YDL072C, incubated two hours with chemical substance
  The level of expressed mRNA in the presence of chemical substance/The level of expressed mRNA in the absence of chemical substance: 1.5
Yeast gene YDL204W, incubated two hours with chemical substance
  The level of expressed mRNA in the presence of chemical substance/The level of expressed mRNA in the absence of chemical substance: 2.0
Yeast gene YDL222C, incubated two hours with chemical substance
  The level of expressed mRNA in the presence of chemical substance/The level of expressed mRNA in the absence of chemical substance: 1.0
Yeast gene YDR330W, incubated two hours with chemical substance
  The level of expressed mRNA in the presence of chemical substance/The level of expressed mRNA in the absence of chemical substance: 2.6
Yeast gene YDR391C, incubated two hours with chemical substance
  The level of expressed mRNA in the presence of chemical substance/The level of expressed mRNA in the absence of chemical substance: 2.7
Yeast gene YDR411C, incubated two hours with chemical substance
  The level of expressed mRNA in the presence of chemical substance/The level of expressed mRNA in the absence of chemical substance: 1.0
Yeast gene YDR511W, incubated two hours with chemical substance
  The level of expressed mRNA in the presence of chemical substance/The level of expressed mRNA in the absence of chemical substance: 2.2
Yeast gene YDR545W, incubated two hours with chemical substance
  The level of expressed mRNA in the presence of chemical substance/The level of expressed mRNA in the absence of chemical substance: 0.7
Yeast gene YEL001C, incubated two hours with chemical substance
  The level of expressed mRNA in the presence of chemical substance/The level of expressed mRNA in the absence of chemical substance: 1.2
Yeast gene YER004W, incubated two hours with chemical substance
  The level of expressed mRNA in the presence of chemical substance/The level of expressed mRNA in the absence of chemical substance: 2.9
Yeast gene YER035W, incubated two hours with chemical substance
  The level of expressed mRNA in the presence of chemical substance/The level of expressed mRNA in the absence of chemical substance: 1.4
Yeast gene YER079W, incubated two hours with chemical substance
  The level of expressed mRNA in the presence of chemical substance/The level of expressed mRNA in the absence of chemical substance: 3.4
Yeast gene YER106W, incubated two hours with chemical substance
  The level of expressed mRNA in the presence of chemical substance/The level of expressed mRNA in the absence of chemical substance: 1.8
Yeast gene YER158C, incubated two hours with chemical substance
  The level of expressed mRNA in the presence of chemical substance/The level of expressed mRNA in the absence of chemical substance: 1.6
Yeast gene YER163C, incubated two hours with chemical substance
  The level of expressed mRNA in the presence of chemical substance/The level of expressed mRNA in the absence of chemical substance: 3.4
Yeast gene YER175C, incubated two hours with chemical substance
  The level of expressed mRNA in the presence of chemical substance/The level of expressed mRNA in the absence of chemical substance: 11.5
Yeast gene YFL006W, incubated two hours with chemical substance
  The level of expressed mRNA in the presence of chemical substance/The level of expressed mRNA in the absence of chemical substance: 1.7
Yeast gene YFL010C, incubated two hours with chemical substance
  The level of expressed mRNA in the presence of chemical substance/The level of expressed mRNA in the absence of chemical substance: 1.4
Yeast gene YFL024C
  The level of expressed mRNA in the presence of chemical substance/The level of expressed mRNA in the absence of chemical substance: 0.5
Yeast gene YFL032W, incubated two hours with chemical substance
  The level of expressed mRNA in the presence of chemical substance/The level of expressed mRNA in the absence of chemical substance: 0.6
Yeast gene YFR020W
  The level of expressed mRNA in the presence of chemical substance/The level of expressed mRNA in the absence of chemical substance: 3.5
Yeast gene YGL037C, incubated two hours with chemical substance
  The level of expressed mRNA in the presence of chemical substance/The level of expressed mRNA in the absence of chemical substance: 1.6
Yeast gene YGL047W, incubated two hours with chemical substance
  The level of expressed mRNA in the presence of chemical substance/The level of expressed mRNA in the absence of chemical substance: 5.7
Yeast gene YGL053W, incubated two hours with chemical substance
  The level of expressed mRNA in the presence of chemical substance/The level of expressed mRNA in the absence of chemical substance: 2.4
Yeast gene YGL121C
  The level of expressed mRNA in the presence of chemical substance/The level of expressed mRNA in the absence of chemical substance: 15.0
Yeast gene YGL199C, incubated two hours with chemical substance
  The level of expressed mRNA in the presence of chemical substance/The level of expressed mRNA in the absence of chemical substance: 0.1
Yeast gene YGR101W, incubated two hours with chemical substance
  The level of expressed mRNA in the presence of chemical substance/The level of expressed mRNA in the absence of chemical substance: 1.4
Yeast gene YGR110W
  The level of expressed mRNA in the presence of chemical substance/The level of expressed mRNA in the absence of chemical substance: 4.8
Yeast gene YGR130C, incubated two hours with chemical substance
  The level of expressed mRNA in the presence of chemical substance/The level of expressed mRNA in the absence of chemical substance: 1.5
Yeast gene YGR154C, incubated two hours with chemical substance
  The level of expressed mRNA in the presence of chemical substance/The level of expressed mRNA in the absence of chemical substance: 9.1
Yeast gene YGR221C, incubated two hours with chemical substance
  The level of expressed mRNA in the presence of chemical substance/The level of expressed mRNA in the absence of chemical substance: 0.7
Yeast gene YGR243W
  The level of expressed mRNA in the presence of chemical substance/The level of expressed mRNA in the absence of chemical substance: 3.0
Yeast gene YHR029C
  The level of expressed mRNA in the presence of chemical substance/The level of expressed mRNA in the absence of chemical substance: 8.6
Yeast gene YHR105W
  The level of expressed mRNA in the presence of chemical substance/The level of expressed mRNA in the absence of chemical substance: 3.4
Yeast gene YHR138C, incubated two hours with chemical substance
  The level of expressed mRNA in the presence of chemical substance/The level of expressed mRNA in the absence of chemical substance: 4.6
Yeast gene YHR199C, incubated two hours with chemical substance
  The level of expressed mRNA in the presence of chemical substance/The level of expressed mRNA in the absence of chemical substance: 6.0
Yeast gene YHR209W
  The level of expressed mRNA in the presence of chemical substance/The level of expressed mRNA in the absence of chemical substance: 6.4
Yeast gene YIL023C, incubated two hours with chemical substance
  The level of expressed mRNA in the presence of chemical substance/The level of expressed mRNA in the absence of chemical substance: 1.6
Yeast gene YIL024C, incubated two hours with chemical substance
  The level of expressed mRNA in the presence of chemical substance/The level of expressed mRNA in the absence of chemical substance: 1.8
Yeast gene YIL041W, incubated two hours with chemical substance
  The level of expressed mRNA in the presence of chemical substance/The level of expressed mRNA in the absence of chemical substance: 1.4
Yeast gene YIL087C, incubated two hours with chemical substance
  The level of expressed mRNA in the presence of chemical substance/The level of expressed mRNA in the absence of chemical substance: 1.8
Yeast gene YJL057C, incubated two hours with chemical substance
  The level of expressed mRNA in the presence of chemical substance/The level of expressed mRNA in the absence of chemical substance: 6.1
Yeast gene YJL066C, incubated two hours with chemical substance
  The level of expressed mRNA in the presence of chemical substance/The level of expressed mRNA in the absence of chemical substance: 2.1
Yeast gene YJL082W, incubated two hours with chemical substance
  The level of expressed mRNA in the presence of chemical substance/The level of expressed mRNA in the absence of chemical substance: 2.9
Yeast gene YJL151C, incubated two hours with chemical substance
  The level of expressed mRNA in the presence of chemical substance/The level of expressed mRNA in the absence of chemical substance: 1.6
Yeast gene YJL152W, incubated two hours with chemical substance
  The level of expressed mRNA in the presence of chemical substance/The level of expressed mRNA in the absence of chemical substance: 1.0
Yeast gene YJL161W, incubated two hours with chemical substance
  The level of expressed mRNA in the presence of chemical substance/The level of expressed mRNA in the absence of chemical substance: 2.1
Yeast gene YJL171C, incubated two hours with chemical substance
  The level of expressed mRNA in the presence of chemical substance/The level of expressed mRNA in the absence of chemical substance: 1.7
Yeast gene YJR008W, incubated two hours with chemical substance
  The level of expressed mRNA in the presence of chemical substance/The level of expressed mRNA in the absence of chemical substance: 1.9
Yeast gene YJR054W, incubated two hours with chemical substance
  The level of expressed mRNA in the presence of chemical substance/The level of expressed mRNA in the absence of chemical substance: 0.6
Yeast gene YKL071W
  The level of expressed mRNA in the presence of chemical substance/The level of expressed mRNA in the absence of chemical substance: 109.2
